One series deals with T1, 5-HT2C receptor (Homo sapiens, UniProt P28335).
T1 sequence (P28335 33-458): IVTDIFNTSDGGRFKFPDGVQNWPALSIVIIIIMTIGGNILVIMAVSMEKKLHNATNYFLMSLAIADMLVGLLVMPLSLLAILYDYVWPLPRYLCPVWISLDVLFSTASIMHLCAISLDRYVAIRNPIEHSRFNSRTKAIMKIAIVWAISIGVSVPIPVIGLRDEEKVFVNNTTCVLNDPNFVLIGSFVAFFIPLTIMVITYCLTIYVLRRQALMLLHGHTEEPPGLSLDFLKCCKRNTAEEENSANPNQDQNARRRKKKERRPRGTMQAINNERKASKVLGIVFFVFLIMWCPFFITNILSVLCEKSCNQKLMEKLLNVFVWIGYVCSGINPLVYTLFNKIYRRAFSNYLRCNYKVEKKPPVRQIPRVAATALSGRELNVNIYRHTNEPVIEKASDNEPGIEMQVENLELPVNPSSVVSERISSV
The conditions noted are these: cited from earlier work.

The target in the next series is 5-HT2 receptors. The note with it: cited from earlier work.

Consider eleven compounds from patent publication US20050119489A1, “4-Sulfide/sulfoxide/sulfonyl-1h-pyrazolyl derivative compounds, for use in diseases associated with the 5-ht2c receptor” (priority 2001, published 2005).

Where a name gives a salt, the structure may show the parent alone.

Usually melting point stands for the temperature of the solid-liquid transition. In the case of `CCc1nn(C[C@H](C)N)c(CC)c1S(=O)(=O)c1ccc(N2CCCC(C)(C)C2=O)cc1.Cl`, the melting point turned out to be 131 °C.
On the same count and under the same terms, then `CCc1nn(CCNC)c(CC)c1Sc1ccc(F)cc1.O=C(O)/C=C\C(=O)O`, with 95 to 97 °C; and `CCc1nn(CC(C)(C)N)c(CC)c1Sc1ccc(F)cc1.O=C(O)/C=C\C(=O)O`, with 120 to 122 °C.
Same read-out and setting: then `CCc1nn(C(C)CN)c(CC)c1Sc1ccc(F)cc1.O=C(O)/C=C\C(=O)O` (stereo not drawn), with 162 °C.
The same measure, in the same setting: then `Cc1nn(CCN)c(C)c1Sc1ccccc1` (as salt: HCl) [Example 2, 2-[3,5-dimethyl-4-(phenylsulfanyl)-1H-pyrazol-1-yl]ethylamine], with 185 to 188 °C; and `CCc1nn(C(C)C(N)=O)c(CC)c1Sc1ccc(F)cc1` (stereo not drawn) (as salt: hydrochloride), with 167 °C; and `CCc1nn(CCN)c(CC)c1Sc1nnnn1C` (as salt: salt) [Example 204], with 148 °C.
The compound `CCc1nn(CCN)c(CC)c1Sc1nccc(C(F)(F)F)n1` (as salt: salt) [Example 205] had a melting point of 154 °C.
Same read-out and setting: the value for `CCc1nn(CCNC)c(CC)c1S(=O)(=O)c1ccc(N2C(=O)CC(C)(C)C2=O)cc1` [Example 160, 1-[4-({3,5-diethyl-1-[2-(methylamino)ethyl]-1H-pyrazol-4-yl}sulfonyl)phenyl]-3,3-dimethyl-2,5-pyrrolidinedione] was 84 to 86 °C.
For the compound `Cc1cc2c(cc1Cl)N(C(=O)Nc1ccc(Oc3cccnc3C)nc1)CC2` [SB-242084], the “selectivity as 5-HT2C receptor antagonist” value on 5-HT2C receptor is recorded as “at least 100 fold”.
For `Cc1nc2sccn2c(=O)c1CCN1CCC(=C(c2ccc(F)cc2)c2ccc(F)cc2)CC1` [ritanserin], at 5-HT2 receptors, the “pKi for the 5-HT2 receptors” value is listed as 8.9 and the “selectivity for the 5-HT2 receptors over 5-HT, receptors” value is on record as 10,000 fold.
